Experimental data taken from patent publication US7612238B2, “Amino-propanol derivatives” (Novartis AG, priority 2002, dated 2009).
Structures can show the parent of a compound that is named as a salt.

Assays:
[1] = test system: peripheral blood lymphocytes; experiment: In vivo: blood lymphocyte depletion; settings: rats, p.o.
Protocol: B. In Vivo: Blood Lymphocyte Depletion
A compound of formula I or the vehicle is administered orally by gavage to rats. Tall blood for hematological monitoring is obtained on day −1 to give the baseline individual values, and at 2, 6, 24, 48 and 72 hours after application. In this assay, the compounds of formula I deplete peripheral blood lymphocytes when administered at a dose of 0.03 to 3 mg/kg.

[2] = target: T1, human S1P receptors (S1P1) (Homo sapiens, UniProt P21453); experiment: S1P receptor profiling, GTP[γ-35S] binding SPA, S1P1; type: biochemical; design: key to S1P1 mode of action (Agon = agonist): Agon = agonist; settings: for EC50: GTP[γ-35S] binding, membranes of transfected CHO or RH7777 cells
T1 construct: expressed in transfected cells
Protocol: (§1) The compounds of formula I have binding affinity to individual human S1P receptors as determined in following assays:
(§2) Sphingosine-1-Phosphate (S1P) Receptor Profiling
(§3) Agonist activities of compounds are tested on the human S1P receptors (S1P1), (S1P3), (S1P2), (S1P4) and (S1P5). […] The assay technology used is SPA (scintillation proximity based assay). Briefly, DMSO dissolved compounds are serially diluted and added to SPA-bead (Amersham-Pharmacia) immobilised S1P receptor expressing membrane protein (10-20 μg/well) in the presence of 50 mM Hepes, 100 mM NaCl, 10 mM MgCl2, 10 μM GDP, 0.1% fat free BSA and 0.2 nM GTP [γ-^35S] (1200 Ci/mmol). After incubation in 96 well microtiterplates at RT for 120 min, unbound GTP [γ-^35S] is separated by a centrifugation step. Luminescence of SPA beads triggered by membrane bound GTP [γ-^35S] is quantified with a TOPcount plate reader (Packard). EC50s are calculated using standard curve fitting software.

[3] = target: T2, human S1P receptors (S1P2) (Homo sapiens, UniProt O95136); experiment: S1P receptor profiling, GTP[γ-35S] binding SPA, S1P2; type: biochemical; settings: membranes of transfected CHO or RH7777 cells
T2 construct: expressed in transfected cells
Protocol: as §1, §2, §3

[4] = target: T3, human S1P receptors (S1P3) (Homo sapiens, UniProt Q99500); experiment: S1P receptor profiling, GTP[γ-35S] binding SPA, S1P3; type: biochemical; design: key to S1P3 mode of action (Agon = agonist): Agon = agonist; settings: for EC50: GTP[γ-35S] binding, membranes of transfected CHO or RH7777 cells
T3 construct: expressed in transfected cells
Protocol: as §1, §2, §3

[5] = target: T4, human S1P receptors (S1P4) (Homo sapiens, UniProt O95977); experiment: S1P receptor profiling, GTP[γ-35S] binding SPA, S1P4; type: biochemical; design: key to S1P4 mode of action (Agon = agonist): Agon = agonist; settings: for EC50: GTP[γ-35S] binding, membranes of transfected CHO or RH7777 cells; for S1P4 mode of action (Agon = agonist): column beside S1P4 EC50
T4 construct: expressed in transfected cells
T4 sequence (O95977 1-384): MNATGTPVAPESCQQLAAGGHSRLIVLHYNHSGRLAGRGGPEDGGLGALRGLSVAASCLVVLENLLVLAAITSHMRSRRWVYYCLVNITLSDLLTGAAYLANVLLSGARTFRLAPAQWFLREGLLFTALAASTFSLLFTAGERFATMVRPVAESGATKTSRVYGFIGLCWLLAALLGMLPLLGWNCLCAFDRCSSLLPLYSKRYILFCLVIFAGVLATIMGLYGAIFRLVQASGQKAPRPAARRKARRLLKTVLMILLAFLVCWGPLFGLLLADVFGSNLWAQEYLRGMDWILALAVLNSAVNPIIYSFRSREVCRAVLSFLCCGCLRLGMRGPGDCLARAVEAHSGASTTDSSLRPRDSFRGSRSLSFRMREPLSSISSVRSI
Protocol: as §1, §2, §3

[6] = target: T5, human S1P receptors (S1P5) (Homo sapiens, UniProt Q9H228); experiment: S1P receptor profiling, GTP[γ-35S] binding SPA, S1P5; type: biochemical; design: key to S1P5 mode of action (Agon = agonist): Agon = agonist; settings: for EC50: GTP[γ-35S] binding, membranes of transfected CHO or RH7777 cells; for S1P5 mode of action (Agon = agonist): column beside S1P5 EC50
T5 construct: expressed in transfected cells
Protocol: as §1, §2, §3

T5 sequence (Q9H228 whole entry): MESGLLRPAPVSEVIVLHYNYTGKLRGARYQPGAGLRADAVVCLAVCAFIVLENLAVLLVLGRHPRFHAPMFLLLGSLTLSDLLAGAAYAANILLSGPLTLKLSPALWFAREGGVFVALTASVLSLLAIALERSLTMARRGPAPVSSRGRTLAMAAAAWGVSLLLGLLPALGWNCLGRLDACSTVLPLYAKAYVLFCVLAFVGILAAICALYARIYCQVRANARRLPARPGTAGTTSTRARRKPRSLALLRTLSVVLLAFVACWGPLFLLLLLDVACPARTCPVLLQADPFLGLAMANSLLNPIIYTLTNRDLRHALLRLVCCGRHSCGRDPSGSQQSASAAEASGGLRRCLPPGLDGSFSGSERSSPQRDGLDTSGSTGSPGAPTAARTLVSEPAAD
T1 sequence (P21453 whole entry): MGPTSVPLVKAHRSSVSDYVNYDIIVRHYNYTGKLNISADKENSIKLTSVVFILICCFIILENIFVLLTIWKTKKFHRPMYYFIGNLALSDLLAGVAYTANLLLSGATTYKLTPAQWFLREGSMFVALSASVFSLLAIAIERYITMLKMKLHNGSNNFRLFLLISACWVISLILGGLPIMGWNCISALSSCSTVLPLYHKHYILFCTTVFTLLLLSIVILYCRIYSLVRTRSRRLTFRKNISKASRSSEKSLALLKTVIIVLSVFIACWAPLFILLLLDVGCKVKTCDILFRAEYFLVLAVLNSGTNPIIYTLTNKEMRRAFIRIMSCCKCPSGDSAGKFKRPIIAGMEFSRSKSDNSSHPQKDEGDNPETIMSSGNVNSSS
T2 sequence (O95136 whole entry): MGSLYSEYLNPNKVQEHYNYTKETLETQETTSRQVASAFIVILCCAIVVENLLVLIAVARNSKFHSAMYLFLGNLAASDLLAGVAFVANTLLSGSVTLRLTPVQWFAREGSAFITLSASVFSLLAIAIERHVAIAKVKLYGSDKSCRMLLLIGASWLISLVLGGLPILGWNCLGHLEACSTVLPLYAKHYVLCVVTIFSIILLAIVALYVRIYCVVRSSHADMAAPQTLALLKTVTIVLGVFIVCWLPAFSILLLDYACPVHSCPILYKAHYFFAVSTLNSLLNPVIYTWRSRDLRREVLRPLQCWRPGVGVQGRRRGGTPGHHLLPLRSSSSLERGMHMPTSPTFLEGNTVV
T3 sequence (Q99500 whole entry): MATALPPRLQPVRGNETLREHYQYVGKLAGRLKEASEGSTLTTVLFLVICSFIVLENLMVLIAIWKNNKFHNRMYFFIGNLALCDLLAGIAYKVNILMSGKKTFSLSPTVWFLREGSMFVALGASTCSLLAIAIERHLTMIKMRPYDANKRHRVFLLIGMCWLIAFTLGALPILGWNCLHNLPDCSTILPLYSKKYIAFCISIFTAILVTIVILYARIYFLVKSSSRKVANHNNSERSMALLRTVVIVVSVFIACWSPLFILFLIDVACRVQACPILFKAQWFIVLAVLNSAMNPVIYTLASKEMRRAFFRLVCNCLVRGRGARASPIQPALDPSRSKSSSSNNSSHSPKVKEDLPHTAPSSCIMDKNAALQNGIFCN

| SMILES | melting point | dose giving depletion of peripheral blood lymphocytes by more than 50% ([1]; after 6 h) | dose giving depletion of peripheral blood lymphocytes by more than 50% ([1]; after 24 h) | S1P1 mode of action (Agon = agonist) [2] | EC50 [2] | EC50 [3] | EC50 [4] | EC50 [5] | S1P4 mode of action (Agon = agonist) [5] | EC50 [6] | S1P5 mode of action (Agon = agonist) [6] | S1P3 mode of action (Agon = agonist) ([4]; column beside S1P3 EC50) |
| --- | --- | --- | --- | --- | --- | --- | --- | --- | --- | --- | --- | --- |
| C[C@](N)(CO)CCc1ccc(OCCCC(F)(F)C(F)(F)F)cc1 (as salt: hydrochloride) [Example 1, (R)-2-Amino-2-methyl-4-[4-(4,4,5,5,5-pentafluoro-pentyloxy)-phenyl]-butan-1-ol Hydrochloride] | 186 to 189 °C |  |  |  |  |  |  |  |  |  |  |  |
| C[C@](N)(CO)CCc1ccc(OCCCCCF)cc1 (as salt: hydrochloride) [Example 2, (R)-2-Amino-2-methyl-4-[4-(5-fluoro-pentyloxy)-phenyl]-butan-1-ol Hydrochloride] | 143 to 146 °C |  |  |  |  |  |  |  |  |  |  |  |
| C[C@](N)(CO)CCc1ccc(OCCCC(F)(F)C(F)(F)F)cc1 [Example 1, (R)-2-Amino-2-methyl-4-[4-(4,4,5,5,5-pentafluoro-pentyloxy)-phenyl]-butan-1-ol Hydrochloride] |  | 0.2 mg/kg | 0.1 mg/kg |  |  |  |  |  |  |  |  |  |
| C[C@@](N)(CCc1ccc(OCCCC(F)(F)C(F)(F)F)cc1)COP(=O)(O)O [Example 34, Mono-(R)-2-Amino-2-methyl-4-[4-(4,4,5,5,5-pentafluoro-pentyloxy)-phenyl]-but-2-yl phosphate] | 229 to 231 °C |  |  | Agon | 16.1 nM | > 10000 nM | > 10000 nM | 15.3 nM | Agon | 0.9 nM | Agon |  |
| C[C@@](N)(CCc1ccc(OCCCCCF)cc1)COP(=O)(O)O [Example 35, Mono-(R)-2-Amino-2-methyl-4-[4-(5-fluoro-pentyloxy)-phenyl]-but-2-yl phosphate] | 237 to 241 °C |  |  |  |  |  |  |  |  |  |  |  |
| CC(N)(CCc1ccc(OCCc2ccc3ccccc3c2)cc1)COP(=O)(O)O (stereo not drawn) [Example 42] |  |  |  | Agon | 4.1 nM | > 10000 nM | > 10000 nM | 1.8 nM | Agon | 21.7 nM | Agon |  |
| C[C@@](N)(CCc1ccc(C(=O)CCc2ccc(-c3ccccc3)cc2)cc1)COP(=O)(O)O [Example 50] |  |  |  | Agon | 0.3 nM | > 10000 nM | 196 nM | > 10000 nM |  | 1.5 nM | Agon | Agon |
| COc1ccc(CCOc2ccc(CCC(N)(CO)COP(=O)(O)O)cc2)cc1F (stereo not drawn) [Example 94] |  |  |  | Agon | 12.2 nM | > 10000 nM | > 10000 nM |  |  | 4.9 nM | Agon |  |
